# Measured values as given in patent US9346817B2, “Dioxino- and oxazin-[2,3-D]pyrimidine PI3K inhibitor compounds and methods of use” (Genentech, Inc., priority 2012, dated 2016).
# Assays:
# [1] = system: MDA-MB-361.1 cells (breast, PI3K mutation); test: In vitro cell proliferation assay (CellTiter-Glo), MDA-MB-361.1; format: cell-based; settings: Cell line: MDA-MB-361.1; Tissue type: breast; Mutation Status: PI3K
# Experimental: (§1) The cytotoxic or cytostatic activity of Formula I exemplary compounds was measured by: establishing a proliferating mammalian tumor cell line in a cell culture medium, adding a Formula I compound, culturing the cells for a period from about 6 hours to about 5 days; and measuring cell viability (Example 902). Cell-based in vitro assays were used to measure viability, i.e. proliferation (IC50), cytotoxicity (EC50), and induction of apoptosis (caspase activation).
# (§2) The in vitro potency of Formula I exemplary compounds was measured by the cell proliferation assay, CellTiter-Glo® Luminescent Cell Viability Assay, commercially available from Promega Corp., Madison, Wis. (Example 902). This homogeneous assay method is based on the recombinant expression of Coleoptera luciferase (U.S. Pat. No. 5,583,024; U.S. Pat. No. 5,674,713; U.S. Pat. No. 5,700,670) and determines the number of viable cells in culture based on quantitation of the ATP present, an indicator of metabolically active cells (Crouch et al (1993) J. Immunol. Meth. 160:81-88; U.S. Pat. No. 6,602,677). The CellTiter-Glo® Assay was conducted in 96 or 384 well format, making it amenable to automated high-throughput screening (HTS) (Cree et al (1995) AntiCancer Drugs 6:398-404). The homogeneous assay procedure involves adding the single reagent (CellTiter-Glo® Reagent) directly to cells cultured in serum-supplemented medium. Cell washing, removal of medium and multiple pipetting steps are not required. The system detects as few as 15 cells/well in a 384-well format in 10 minutes after adding reagent and mixing.
# (§3) The homogeneous “add-mix-measure” format results in cell lysis and generation of a luminescent signal proportional to the amount of ATP present. The amount of ATP is directly proportional to the number of cells present in culture. The CellTiter-Glo® Assay generates a “glow-type” luminescent signal, produced by the luciferase reaction, which has a half-life generally greater than five hours, depending on cell type and medium used. Viable cells are reflected in relative luminescence units (RLU). The substrate, Beetle Luciferin, is oxidatively decarboxylated by recombinant firefly luciferase with concomitant conversion of ATP to AMP and generation of photons. The extended half-life eliminates the need to use reagent injectors and provides flexibility for continuous or batch mode processing of multiple plates. This cell proliferation assay can be used with various multiwell formats, e.g. 96 or 384 well format. Data can be recorded by luminometer or CCD camera imaging device. The luminescence output is presented as relative light units (RLU), measured over time.
# (§4) The anti-proliferative effects of Formula I exemplary compounds were measured by the CellTiter-Glo® Assay (Example 902) against several tumor cell lines. Potency EC50 values were established for the tested compounds. The range of in vitro cell potency activities was about 100 nM to about 10 μM.
# (§5) Efficacy of Formula I compounds was measured by a cell proliferation assay employing the following protocol (Promega Corp. Technical Bulletin TB288; Mendoza et al (2002) Cancer Res. 62:5485-5488):
# (§6) 1. An aliquot of 100 μl of cell culture containing about 10^4 cells (PC3 (prostate cancer), Detroit562 (pharynx carcinoma), or MDAMB361.1 (breast cancer) in medium was deposited in each well of a 384-well, opaque-walled plate.
# (§7) 2. Control wells were prepared containing medium and without cells.
# (§8) 3. The compound was added to the experimental wells and incubated for 3-5 days.
# (§9) 4. The plates were equilibrated to room temperature for approximately 30 minutes.
# (§10) 5. A volume of CellTiter-Glo® Reagent equal to the volume of cell culture medium present in each well was added.
# (§11) 6. The contents were mixed for 2 minutes on an orbital shaker to induce cell lysis.
# (§12) 7. The plate was incubated at room temperature for 10 minutes to stabilize the luminescence signal.
# (§13) 8. Luminescence was recorded and reported in graphs as RLU=relative luminescence units. […]
# [2] = Brain protein binding in rats; format: in vitro ADME; settings: rat, read-out: Brain protein binding (mean bound %) (converted)
# Experimental: Brain protein binding in rats was measured for Formula I exemplary compounds, including the following: […]
# [3] = system: PC3 cells (prostate, PTEN mutation); test: In vitro cell proliferation assay (CellTiter-Glo), PC3; format: cell-based; settings: Homo sapiens, PC-3; Cell line: PC3; Tissue type: prostate; Mutation Status: PTEN
# Experimental: as §1, §2, §3, §4, §5, §6, §7, §8, §9, §10, §11, §12, §13
SMILES,EC50 [1] [nM],fraction unbound [2],EC50 [3] [nM]
"Nc1ncc(-c2nc3c(c(N4CCOCC4)n2)OCCO3)cn1 [Compound 101, 5-(4-morpholino-6,7-dihydro-[1,4]dioxino[2,3-d]pyrimidin-2-yl)pyrimidin-2-amine]",1100,0.285,1000
"C[C@@H]1COc2nc(-c3cnc(N)nc3)nc(N3CCOCC3)c2O1 [Compound 102, 5-[(6R)-6-methyl-4-morpholino-6,7-dihydro-[1,4]dioxino[2,3-d]pyrimidin-2-yl]pyrimidin-2-amine]",370,0.2,557
"CC1COc2c(nc(-c3cnc(N)nc3)nc2N2CCOCC2)O1 (centres unmarked) [Compound 103, 5-(7-methyl-4-morpholino-6,7-dihydro-[1,4]dioxino[2,3-d]pyrimidin-2-yl)pyrimidin-2-amine]",630,,606
"CC1(C)COc2c(nc(-c3cnc(N)nc3)nc2N2CCOCC2)O1 [Compound 104, 5-(7,7-dimethyl-4-morpholino-6H-[1,4]dioxino[2,3-d]pyrimidin-2-yl)pyrimidin-2-amine]",577,,406
"Nc1ncc(-c2nc3c(c(N4CCOCC4)n2)OCC(C(F)(F)F)O3)cn1 (centres unmarked) [Compound 105, 5-[4-morpholino-7-(trifluoromethyl)-6,7-dihydro-[1,4]dioxino[2,3-d]pyrimidin-2-yl]pyrimidin-2-amine]",275,0.183,500
"Nc1ncc(-c2nc3c(c(N4CCOCC4)n2)OCC2(CC2)O3)cn1 [Compound 106, 5-(4-morpholinospiro[6H-[1,4]dioxino[2,3-d]pyrimidine-7,1′-cyclopropane]-2-yl)pyrimidin-2-amine]",544,0.134,489
"Nc1ncc(-c2nc3c(c(N4CCOCC4)n2)OC(C2CC2)CO3)cn1 (centres unmarked) [Compound 107, 5-(6-cyclopropyl-4-morpholino-6,7-dihydro-[1,4]dioxino[2,3-d]pyrimidin-2-yl)pyrimidin-2-amine]",961,,1200
"CC(C)(C)C1COc2c(nc(-c3cnc(N)nc3)nc2N2CCOCC2)O1 (centres unmarked) [Compound 108, 5-(7-tert-butyl-4-morpholino-6,7-dihydro-[1,4]dioxino[2,3-d]pyrimidin-2-yl)pyrimidin-2-amine]",213,,338
"CC1(C)COc2c(nc(-c3cccc(O)c3)nc2N2CCOCC2)O1 [Compound 109, 3-(7,7-dimethyl-4-morpholino-6H-[1,4]dioxino[2,3-d]pyrimidin-2-yl)phenol]",445,,182
"COc1ncc(-c2nc3c(c(N4CCOCC4)n2)OCC(C)(C)O3)cn1 [Compound 110, 2-(2-methoxypyrimidin-5-yl)-7,7-dimethyl-4-morpholino-6H-[1,4]dioxino[2,3-d]pyrimidine]",4100,,4800

# Further lines, results first:
EC50 [1] [nM],fraction unbound [2],EC50 [3] [nM],SMILES
545,,480,"CC1(C)COc2c(nc(-c3ccc(N)nc3)nc2N2CCOCC2)O1 [Compound 111, 5-(7,7-dimethyl-4-morpholino-6H-[1,4]dioxino[2,3-d]pyrimidin-2-yl)pyridin-2-amine]"
1800,,2100,"CC(=O)Nc1ccc(-c2nc3c(c(N4CCOCC4)n2)OCC(C)(C)O3)cc1 [Compound 112, N-[4-(7,7-dimethyl-4-morpholino-6H-[1,4]dioxino[2,3-d]pyrimidin-2-yl)phenyl]acetamide]"
2000,,2100,"CNc1ccc(-c2nc3c(c(N4CCOCC4)n2)OCC(C)(C)O3)cn1 [Compound 113, 5-(7,7-dimethyl-4-morpholino-6H-[1,4]dioxino[2,3-d]pyrimidin-2-yl)-N-methyl-pyridin-2-amine]"
> 7500,,> 10000,"CC1(C)COc2c(nc(-c3cccc(NS(C)(=O)=O)c3)nc2N2CCOCC2)O1 [Compound 114, N-[3-(7,7-dimethyl-4-morpholino-6H-[1,4]dioxino[2,3-d]pyrimidin-2-yl)phenyl]methanesulfonamide]"
1800,,2300,"CC1(C)COc2c(nc(-c3ccc4[nH]ccc4c3)nc2N2CCOCC2)O1 [Compound 115, 2-(1H-indol-5-yl)-7,7-dimethyl-4-morpholino-6H-[1,4]dioxino[2,3-d]pyrimidine]"
730,0.17,760,"Nc1ncc(-c2nc3c(c(N4CCOCC4)n2)OCC(CF)O3)cn1 (centres unmarked) [Compound 116, 5-[7-(fluoromethyl)-4-morpholino-6,7-dihydro-[1,4]dioxino[2,3-d]pyrimidin-2-yl]pyrimidin-2-amine]"
669,,759,"Nc1ncc(-c2nc3c(c(N4CCOCC4)n2)OCC(CO)O3)cn1 (centres unmarked) [Compound 117, [2-(2-aminopyrimidin-5-yl)-4-morpholino-6,7-dihydro-[1,4]dioxino[2,3-d]pyrimidin-7-yl]methanol]"
2600,,3100,"CN1CCOc2c1nc(-c1cnc(N)nc1)nc2N1CCOCC1 [Compound 119, 5-(8-methyl-4-morpholino-7,8-dihydro-6H-pyrimido[5,4-b][1,4]oxazin-2-yl)pyrimidin-2-amine]"
570,0.16,589,"CN1C(=O)COc2c(N3CCOCC3)nc(-c3cnc(N)nc3)nc21 [Compound 120, 2-(2-aminopyrimidin-5-yl)-8-methyl-4-morpholino-6H-pyrimido[5,4-b][1,4]oxazin-7(8H)-one]"
